For one data set, the system named is Ld39 amastigotes. Put plainly: In vitro anti-amastigote activity, Ld39 amastigotes in mouse PEM. As to conditions: read-out: IC50 against Ld39 amastigotes.
Data set [1] concerns LdAG83 promastigotes (wild type). Put plainly: In vitro anti-promastigote activity, LdAG83. In kind it is cell-based, Leishmania donovani. As to conditions: read-out: Anti-promastigotes activity (IC50, μM) LdAG83. Here is the method: (§1) Cell Lines and Cell Culture. Promastigotes of Leishmania donovani (wild type LdAG83, pentamidine-resistant LdAG83-PentR50, and SSG-resistant Ld39) and Leishmania major [MHOM/IL/67/JERICHO II (Lm50122), from ATCC] were used in this study.
(§2) In Vitro Anti-Promastigote Activity. The viability of promastigotes was determined by the Cell Titer 96° Aqueous Assay (Promega) that employs a tetrazolium compound (MTS, 2-(4,5-Dimethylthiazol-2-yl-)-5-[3-(carboxymethoxy)phenyl]-2-(4-sulfophenyl)-2H-tetrazolium) and electron coupling reagent, phenazine methosulfate (PMS).^7 Promastigotes were seeded into 96-well flat bottom microtiter plate at 1×10^5 cells per well in a final volume of 100 μL medium and incubated with a series concentration of synthetic flavonoid dimers or known antileishmanials. The parasites were incubated at 27° C. for 72 hrs. Fresh solution of 2 mg/mL MTS and 0.92 mg/mL PMS were prepared in a ratio of 20:1 (MTS:PMS). After 72 hrs incubation, 10 μL of MTS:PMS mixture was added into each well of microtiter plate. The plate was then incubated at 27° C. for 4 hrs for color development. After 4 hrs incubation, the OD values were determined at 490 nm using automatic microtiter plate reader (Bio-Rad).

Data set [2] concerns LdAG83PentR50 promastigotes (pentamidine-resistant). Kind of data set: microbe, parasite or virus in culture. In kind it is cell-based, Leishmania donovani. The following applies: read-out: Anti-promastigotes activity (IC50, μM) LdAG83PentR50. The procedure: as §1
No pentamidine or sodium stibogluconate was added to the L. donovani wild type (LdAG83) and L. major wild type (Lm50122). The mouse macrophage cell line, Raw264.7, was used for the determination of the relative toxicity of the compounds of the invention. […] They were maintained at 37° C. in a humidified atmosphere with 5% CO2. The cells were split constantly after a confluent monolayer has been formed. To split cells, the plate was washed briefly with PBS, treated with 0.05% trypsin-EDTA and harvested by centrifugation.
as §2

Data set [3] deals with Ld39 promastigotes (SSG-resistant). Kind of data set: In vitro anti-promastigote activity, Ld39. The following applies: read-out: Anti-promastigotes activity (IC50, μM) Ld39. In kind it is cell-based, Leishmania donovani. The procedure: as §1, §2
A further data set concerns Lm50122 promastigotes. Put plainly: In vitro anti-promastigote activity, Lm50122. In kind it is cell-based, Leishmania major. As to conditions: read-out: Anti-promastigotes activity (IC50, μM) Lm50122. Here is the method:
as §1, §2

A further data set concerns Raw264.7 cells. Kind of data set: Cytotoxicity, mouse macrophage Raw264.7. In kind it is cell-based. Here is the method: (§3) (a) Mouse Macrophage Raw 264.7 and Primary Mouse PEM Cells. The cytotoxicity assay of reference antileishmanial compounds and the compounds of this invention was performed against mouse macrophage cell line, Raw 264.7 and primary mouse PEM cells in order to calculate the therapeutic index (IC50 value for cytotoxicity of the compounds divided by IC50 value for antileishmanial activity of the compounds). The cells were grown in supplemented DMEM media in an atmosphere of 95% air with 5% CO2 at 37° C. In brief, Raw264.7 cells and PEM cells were seeded into 96-well flat bottom microtiter plate at 1×10^4cells and 2×10^4 cells per well in a final volume of 100 μL media, respectively. A graded dose of flavonoid dimers or antileishmanials was added into wells. The plate was incubated at 37° C. for 72 hrs at the atmosphere 5% CO2 in the air. The % of survivors was determined.

For the next data set, the system named is PEM cells. Kind of data set: Cytotoxicity, primary mouse peritoneal elicited macrophage (PEM). In kind it is cell-based. The following applies: cytotoxicity, primary mouse macrophage, 72 hrs. Here is the method: as §3
In the next data set the target is Pgp (LCC6MDR cells) (Homo sapiens, UniProt P08183). Put plainly: Cell proliferation assay: Pgp-modulating activity, reversal of anticancer drug resistance in LCC6MDR cells. As to conditions: for EC50: EC50 of compounds for reversing anticancer drug resistance (nM), Paclitaxel; for EC50 / RF (Relative Fold), cpd at 0.5 μM: LCC6MDR; for Therapeutic index: IC50 of compounds for L929/EC50 of compounds for lowering paclitaxel drug resistance; for RF (Relative Fold), cpd at 0.5 μM: RF = (IC50 without modulator)/(IC50 with 0.5 μM modulator), paclitaxel.

A short description of data set [4]: Tumor cell line cytotoxicity of flavonoid dimers, LCC6MDR. Format: cell-based, human. As to conditions: human, LCC6MDR cells, IC50 of compound alone. An outline of the steps: (§4)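 LCC6, LCC6MDR and L929 cells seeded at 1×10^4 cells/well and exposed to graded doses of flavonoid dimers. Incubation 72 hrs at 37° C., 5% CO2. Read-out: % survivors.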
The nature of data set [5]: Tumor cell line cytotoxicity of flavonoid dimers, LCC6. In kind it is cell-based, human. The following applies: human, LCC6 cells, IC50 of compound alone. An outline of the steps:
as §4

Another data set concerns Leishmania promastigotes. Put plainly: Anti-promastigote activity over the Leishmania strains. Format: cell-based, Leishmania donovani, Leishmania major. The following applies: for IC50: different Leishmania strains, read-out: Anti-promastigote IC50, range over strains. The procedure: as §1, §2
Data set [6] can be described thus: Cytotoxicity of flavonoid dimers, L929 mouse fibroblast. As to conditions: mouse, L929 fibroblast cells, IC50 of compound alone, 72 hrs, mouse fibroblast. Format: cell-based. The procedure, abridged: as §4
Data set [7] in a line: Cytotoxicity over LCC6, LCC6MDR and L929 cell lines. Format: cell-based, human, mouse. As to conditions: human, cancer lines LCC6, LCC6MDR and/or L929. The procedure: (b) Tumor Cell Line Cytotoxicity. The tumor cytotoxicity assays of flavonoid dimers were performed against LCC6, LCC6MDR and L929 cell lines. The cells were grown in supplemented DMEM media in an atmosphere of 95% air and 5% CO2 at 37° C. In brief, LCC6, LCC6MDR and L929 cells were seeded into 96-well flat bottom microtiter plate at 1×10^4 cells per well in a final volume of 100 μL media, respectively. A graded dose of flavonoid dimers was added into wells. The plate was incubated at 37° C. for 72 hrs at the atmosphere 5% CO2 in the air. The % of survivors was determined.

The mark [8] stands for this setting: mouse, LCC6MDR and L929 cell lines.

Where two headings read alike, the source gives them in different places.

Chain of Pgp (LCC6MDR cells) (P08183 whole entry): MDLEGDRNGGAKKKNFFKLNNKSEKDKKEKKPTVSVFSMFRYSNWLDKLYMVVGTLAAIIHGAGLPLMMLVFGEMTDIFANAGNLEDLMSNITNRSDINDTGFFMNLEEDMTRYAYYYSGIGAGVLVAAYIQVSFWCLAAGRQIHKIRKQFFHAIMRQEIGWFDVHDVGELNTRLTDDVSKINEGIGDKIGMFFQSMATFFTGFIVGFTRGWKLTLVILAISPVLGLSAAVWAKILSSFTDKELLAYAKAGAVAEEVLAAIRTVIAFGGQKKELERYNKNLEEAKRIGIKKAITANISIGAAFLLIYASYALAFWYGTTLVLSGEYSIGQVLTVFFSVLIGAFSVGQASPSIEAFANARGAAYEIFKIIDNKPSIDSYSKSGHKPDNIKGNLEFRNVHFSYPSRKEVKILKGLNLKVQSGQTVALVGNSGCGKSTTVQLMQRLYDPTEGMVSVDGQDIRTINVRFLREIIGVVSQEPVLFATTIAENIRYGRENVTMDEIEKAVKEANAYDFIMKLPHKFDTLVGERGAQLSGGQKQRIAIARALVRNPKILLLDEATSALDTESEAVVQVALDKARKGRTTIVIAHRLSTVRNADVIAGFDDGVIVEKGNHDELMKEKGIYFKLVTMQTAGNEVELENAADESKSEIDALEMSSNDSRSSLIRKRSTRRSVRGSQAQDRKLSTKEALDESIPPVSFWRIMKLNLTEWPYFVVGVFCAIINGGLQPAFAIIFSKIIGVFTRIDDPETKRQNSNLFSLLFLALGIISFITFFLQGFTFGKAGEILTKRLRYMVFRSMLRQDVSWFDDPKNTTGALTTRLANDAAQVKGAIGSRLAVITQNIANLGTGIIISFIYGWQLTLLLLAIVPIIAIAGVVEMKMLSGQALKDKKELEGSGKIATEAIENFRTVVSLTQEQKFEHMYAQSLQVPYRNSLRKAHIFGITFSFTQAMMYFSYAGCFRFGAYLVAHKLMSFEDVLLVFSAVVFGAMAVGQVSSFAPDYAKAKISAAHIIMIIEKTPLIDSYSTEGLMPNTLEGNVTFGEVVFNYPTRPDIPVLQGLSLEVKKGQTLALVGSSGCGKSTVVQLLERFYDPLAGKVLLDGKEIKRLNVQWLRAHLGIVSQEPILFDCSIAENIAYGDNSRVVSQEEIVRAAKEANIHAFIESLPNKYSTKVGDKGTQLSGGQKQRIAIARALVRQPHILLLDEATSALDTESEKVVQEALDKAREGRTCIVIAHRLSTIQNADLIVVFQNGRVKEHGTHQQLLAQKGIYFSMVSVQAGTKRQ
Procedure for Ld39 amastigotes: Peritoneal elicited macrophages (PEM) from mouse were obtained as previously described. A round cover slip (12 mm in diameter) was placed into each well of 24-well culture plate. Mouse macrophages were resuspended in supplemented DMEM media containing 10% heat inactivated fetal bovine serum (v/v), 100 U/mL penicillin and 100 μg/mL streptomycin and seeded into each well at a cell density of 1×10^5 cells per 500 μL. Macrophages were allowed to attach overnight and the non-adherent cells were removed by gentle washing twice with unsupplemented DMEM media. […] Non-internalized promastigotes were removed by washing with unsupplemented DMEM media for two times. Infected macrophages were further incubated in 500 μL supplemented DMEM media in the presence or absence of flavonoid dimers or known antileishmanials for 72 hrs at 37° C. After incubation, the cover slips were stained with Giemsa and the amastigotes inside each macrophage (100 macrophages per treatment) were counted under microscope. The percentage of macrophages infected and number of amastigotes per 100 macrophages was enumerated.
The % of infected macrophage and the number of amastigotes per 100 macrophages were counted by staining with Giemsa.
Procedure for Pgp (LCC6MDR cells): Cell Proliferation Assay. 6,000 cells of LCC6 or LCC6MDR and anticancer drugs (paclitaxel, vinblastine, vincristine, doxorubicin and mitoxantrone) were mixed with or without modulators to a final volume of 200 μL in each well of 96-well plates. […] The plates were then incubated for 5 days at 37° C. […] IC50 values were calculated from the dose-response curves of MTS assays (Prism 4.0).

Turning to `C[C@@H]1[C@H](O)[C@@H](C)/C=C/C=C/C=C/C=C/C=C/C=C/C=C/[C@H](O[C@@H]2O[C@H](C)[C@@H](O)[C@H](N)[C@@H]2O)C[C@@H]2O[C@](O)(C[C@@H](O)C[C@@H](O)[C@H](O)CC[C@@H](O)C[C@@H](O)CC(=O)O[C@H]1C)C[C@H](O)[C@H]2C(=O)O` [Amphotericin B, amphotericin B, reference compound], the IC50 – broadly, the concentration at which inhibition is half-maximal – in the data set on Ld39 amastigotes was 62 nM; in data set [1] (3 days at 27° C., MTS), 0.09 ± 0.02 µM; in [2] (3 days at 27° C., MTS), 0.051 µM; in data set [3] (3 days at 27° C., MTS), 0.095 ± 0.02 µM; with Lm50122 promastigotes (3 days at 27° C., MTS), 0.34 ± 0.06 µM; in the data set with Raw264.7 cells (72 hrs) it was 12 µM. Moreover, the IC50 in the data set with PEM cells was determined as 7.4 µM.

On to `O=c1cc(-c2ccc(OCCOCCNCCOCCOc3ccc(-c4cc(=O)c5ccccc5o4)cc3)cc2)oc2ccccc12` [Compound 12a, 1,13-Bis[4′-(4H-chromen-4-on-2-yl)phenyl]-1,4,10,13-tetraoxa-7-azamidecane], for which, at Pgp (LCC6MDR cells), the EC50 (commonly the concentration at which the effect is half-maximal) stood at 305 ± 35 nM. Also, on Pgp (LCC6MDR cells), the Therapeutic index turned out to be 19.3. Further, on Pgp (LCC6MDR cells), the “RF (Relative Fold), cpd at 0.5 μM” value is on record as “(72.9)”. Moreover, the IC50 at 72 h was determined as 2.4 ± 0.7 µM in data set [4], 3.3 ± 1 µM in data set [5] and 5.9 ± 0.6 µM in data set [6]. Further, the IC50 is 3.3 µM in data set [1] (Leishmania donovani, 72 h); < 4000 nM with Leishmania promastigotes; 1.1 µM in data set [2] (Leishmania donovani, 72 h); 2.3 µM in [3] (Leishmania donovani, 72 h); 2.1 ± 0.9 µM in the data set on Raw264.7 cells (72 hrs, listed as 12); < 4 µM in the data set on Raw264.7 cells (Mus musculus, RAW264.7, 72 h).

Regarding `COc1cccc2oc(-c3ccc(OCCOCCN(CCOCCOc4ccc(-c5cc(=O)c6c(OC)cccc6o5)cc4)C(=O)OC(C)(C)C)cc3)cc(=O)c12` [Compound 16d, 1,13-Bis[4′-((5-methoxy)-4H-chromen-4-on-2-yl)phenyl]-7-(tert-butyloxycarbonyl)-1,4,10,13-tetraoxa-7-azamidecane], the “RF (Relative Fold), cpd at 0.5 μM” value at Pgp (LCC6MDR cells) is listed as “(14.9)”. Also, the half-maximal inhibitory concentration (IC50) at 72 h in [4] is 5.4 ± 0.5 µM; in [5] it was 4.6 ± 0.2 µM; in [7], < 8 µM.

Consider `O=c1cc(-c2ccc(OCCOCCN(CCOCCOc3ccc(-c4cc(=O)c5ccccc5o4)cc3)Cc3ccc([N+](=O)[O-])cc3)cc2)oc2ccccc12` [Compound 19, 1,13-Bis[4′-(4H-chromen-4-on-2-yl)phenyl]-N-(4-nitrobenzyl)-1,4,10,13-tetraoxa-7-azamidecane], for which the EC50 at Pgp (LCC6MDR cells) was 189 ± 1 nM. For the same compound, the Therapeutic index on Pgp (LCC6MDR cells) was 465.6. In addition, the IC50 at 72 h in data set [4] is > 90 µM; in data set [5], 86.8 ± 1.8 µM; in [6] it was 88 ± 6.1 µM; in [7] (setting [8]), > 90 µM. Further, the IC50 in [1] (Leishmania donovani, 72 h) was > 100 µM; in [3] (Leishmania donovani, 72 h) it was > 100 µM; in the data set on Lm50122 promastigotes (Leishmania major, 72 h), > 100 µM; in the data set on Raw264.7 cells (Mus musculus, RAW264.7, 72 h) it was 70.3 ± 9.7 µM.

In the case of `O=c1cc(-c2ccc(OCCOCCN(CCOCCOc3ccc(-c4cc(=O)c5ccccc5o4)cc3)Cc3ccccn3)cc2)oc2ccccc12` [Compound 22, 1,13-Bis[4′-(4H-chromen-4-on-2-yl)phenyl]-N-(2-pyridylmethyl)-1,4,10,13-tetraoxa-7-azamidecane], on Pgp (LCC6MDR cells), the “RF (Relative Fold), cpd at 0.5 μM” value is “(15.8)”. The IC50 at 72 h stood at 29.7 ± 16.4 µM in data set [4], 10 ± 1.2 µM in [5] and 10 µM in [6]. Further, the IC50 in [1] (Leishmania donovani, 72 h) is 2.3 ± 0.8 µM; in the data set on Leishmania promastigotes, 1800 to 2400 nM; in data set [3] (Leishmania donovani, 72 h), 2.4 ± 1 µM; in the data set on Lm50122 promastigotes (Leishmania major, 72 h), 1.8 ± 0.6 µM; in the data set with Raw264.7 cells (Mus musculus, RAW264.7, 72 h), 53 ± 12.7 µM. For the same compound, the “Fold lower leishmanicidal activity than compound 21” value in the data set on Leishmania promastigotes is reported as “about 10 fold”.

For the compound `O=C1c2ccccc2C(=O)N1CCN(CCOCCOc1ccc(-c2cc(=O)c3ccccc3o2)cc1)CCOCCOc1ccc(-c2cc(=O)c3ccccc3o2)cc1` [Compound 23c, 1,13-Bis[4′-(4H-chromen-4-on-2-yl)phenyl]-7-[2-(1,3-dioxo-1,3-dihydro-2H-isoindol-2-yl)ethyl]-1,4,10,13-tetraoxa-7-azamidecane], at Pgp (LCC6MDR cells), the “RF (Relative Fold), cpd at 0.5 μM” value is given as “(9.6)”. In addition, the IC50 at 72 h was 4.9 ± 0.1 µM in [4], 8.6 ± 3.4 µM in data set [5], 17 ± 4.3 µM in data set [6] and 4.9 to 8.6 µM in data set [7] (setting [8]).

Take `O=c1cc(-c2ccc(OCCOCCN(CCOCCOc3ccc(-c4cc(=O)c5ccccc5o4)cc3)Cc3ccccc3F)cc2)oc2ccccc12` [Compound 36, 1,13-Bis[4′-(4H-chromen-4-on-2-yl)phenyl]-7-(2-fluorobenzyl)-1,4,10,13-tetraoxa-7-azamidecane]: the melting point (as a rule, the temperature of the solid-liquid transition) lay in the range of 82 to 84 °C. For the same compound, on Pgp (LCC6MDR cells), the EC50 came to 179 ± 44 nM and the Therapeutic index is given as >558.7. In [4], the IC50 at 72 h was > 100 µM. Besides, the IC50 at 72 h in data set [5] is > 100 µM. The IC50 at 72 h in data set [6] is > 100 µM. The IC50 at 72 h in data set [7] (setting [8]) was > 100 µM.

In the case of `O=c1cc(-c2ccc(OCCOCCN(CCOCCOc3ccc(-c4cc(=O)c5ccccc5o4)cc3)Cc3cccc(F)c3)cc2)oc2ccccc12` [Compound 37, 1,13-Bis[4′-(4H-chromen-4-on-2-yl)phenyl]-7-(3-fluorobenzyl)-1,4,10,13-tetraoxa-7-azamidecane], the melting point is 91 to 93 °C. At Pgp (LCC6MDR cells), the EC50 stood at 258 ± 103 nM and the Therapeutic index was >337.2. Besides, in data set [4], the IC50 at 72 h is > 100 µM. The IC50 at 72 h in data set [5] was > 100 µM. Moreover, the IC50 at 72 h in data set [6] was > 87 µM. For the same compound, the IC50 at 72 h in data set [7] (setting [8]) was > 100 µM.

With `O=c1cc(-c2ccc(OCCOCCN(CCOCCOc3ccc(-c4cc(=O)c5ccccc5o4)cc3)Cc3cc(F)c(F)c(F)c3)cc2)oc2ccccc12` [Compound 39, 1,13-Bis[4′-(4H-chromen-4-on-2-yl)phenyl]-7-(3,4,5-trifluorobenzyl)-1,4,10,13-tetraoxa-7-azamidecane], the IC50 at 72 h in data set [4] is > 100 µM; in [5], > 75 µM; in data set [6], > 100 µM; in data set [7] (setting [8]), > 100 µM.

Source of the values: patent US8980848B2, “Flavonoid dimers and their use” (The Hong Kong Polytechnic University, priority 2010, dated 2015).
